Where “and” joins values, the source holds several entries; their conditions need not be identical. Equal values may be shown once.
Legend:
ULK1 = biological target: T1, ULK1 (Homo sapiens, UniProt O75385); assay: ULK1 ADP Hunter Plus kinase activity assay; type: biochemical; conditions: resynthesized samples; mean potency in parenthesis, n = 5; read-out: IC50 against ULK1 (converted)
T1 construct: purchased MRC PPU Reagents and Services, Dundee, Scotland
T1 sequence (O75385 1-1050): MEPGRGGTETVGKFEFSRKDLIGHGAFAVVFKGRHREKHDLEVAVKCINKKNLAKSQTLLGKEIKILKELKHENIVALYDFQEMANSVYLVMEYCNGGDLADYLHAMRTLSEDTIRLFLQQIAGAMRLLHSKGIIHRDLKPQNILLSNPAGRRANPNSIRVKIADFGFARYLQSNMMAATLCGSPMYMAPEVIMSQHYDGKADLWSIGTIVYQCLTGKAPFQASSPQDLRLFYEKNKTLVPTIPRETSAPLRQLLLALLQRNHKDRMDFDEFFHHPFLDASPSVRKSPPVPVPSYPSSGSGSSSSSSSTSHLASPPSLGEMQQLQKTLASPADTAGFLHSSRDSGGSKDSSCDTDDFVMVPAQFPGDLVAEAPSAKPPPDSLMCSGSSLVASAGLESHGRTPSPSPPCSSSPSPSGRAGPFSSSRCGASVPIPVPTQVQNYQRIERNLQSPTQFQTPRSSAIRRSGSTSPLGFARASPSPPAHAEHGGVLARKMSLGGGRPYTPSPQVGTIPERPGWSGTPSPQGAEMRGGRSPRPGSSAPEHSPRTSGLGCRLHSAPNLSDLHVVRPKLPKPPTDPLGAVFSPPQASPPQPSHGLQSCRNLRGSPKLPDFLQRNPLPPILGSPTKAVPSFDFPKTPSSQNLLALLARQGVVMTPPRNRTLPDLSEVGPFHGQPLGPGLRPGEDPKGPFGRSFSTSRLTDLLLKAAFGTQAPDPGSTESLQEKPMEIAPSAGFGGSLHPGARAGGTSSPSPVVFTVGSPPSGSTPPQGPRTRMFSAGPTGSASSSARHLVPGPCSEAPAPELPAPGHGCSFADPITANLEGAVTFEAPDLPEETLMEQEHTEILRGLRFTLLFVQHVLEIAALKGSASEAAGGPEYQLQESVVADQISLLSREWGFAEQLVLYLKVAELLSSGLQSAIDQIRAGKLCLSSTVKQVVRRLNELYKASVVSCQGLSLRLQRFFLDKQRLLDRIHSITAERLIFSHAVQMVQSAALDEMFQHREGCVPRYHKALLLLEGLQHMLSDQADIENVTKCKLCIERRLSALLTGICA

LC3 flux in U2OS cells = assay: Autophagic flux: LC3-II western blot with/without BafA1 in U2OS cells; type: cell-based, human; conditions: U2OS
Experimental: (§1) U2OS (human osteosarcoma-derived) cells were cultured in DMEM supplemented with 10% foetal bovine serum, 100 U/ml Penicillin and […] L-glutamine. Cells were pre-treated with compounds at the indicated concentrations for 60 min followed by treatments with EBSS or EBSS combined with/without 50 nM Bafilomycin A1 (Enzo Life Sciences) for a further 60 or 120 min with/without inhibitors, as indicated in figures/figure legends.
(§2) Prior to western blot analysis, cells were washed twice in ice-cold PBS and lysed in buffer containing 50 mM HEPES pH 7.4, 150 mM NaCl, 1 mM EDTA, 10% Glycerol, 0.5% NP-40, 1 mM DTT, supplemented with phosphatase inhibitors (1.15 mM sodium molybdate, 4 mM sodium tartrate, 0.01 M β-glycerophosphate, 1 mM sodium fluoride, 1 mM sodium orthovanadate) and protease inhibitor tablets (Roche) according to manufacturer's instructions. Lysates were then spun at 20 000×g for 10 min and the supernatant was collected for protein content estimation using Protein Assay Dye Reagent Concentrate from Bio-Rad. 4× LDS was added to the lysate (final dilution 1×) prior to heating at 95°C for 5 min. Electrophoresis and transfer to PVDF membranes was performed using standard protocols. Membranes were blocked in 5% milk in TBS-T prior to incubation with primary antibodies (in 5% milk/TBS-T for ULK1, pS555 (human S556) ULK1, pS757 (human S758) ULK1, pS318-ATG13, ATG13, and in 5% BSA/TBS-T for LC3 and α-Tubulin) under rotation overnight at 4°C followed by washes in TBS-T and incubation with HRP-conjugated secondary antibodies (in 5% milk in TBS-T) for 60 min at room temperature. Membranes were washed in TBS-T before application of ECL reagent (GE healthcare) and development on hypersensitive X-ray films (GE healthcare) (Figures 5A, 6C and Supplementary Figure S7C) or using BIO-RAD Clarity^TM western blotting substrate (Supplementary Figure S6C and Supplementary Figure S7A) and a BIO-RAD ChemiDoc^TM imaging system.
(§3) Quantification of western blots was performed with band densitometry analysis using ImageJ. Quantification of LC3 puncta was performed using either the ITCN plugging in ImageJ or Volocity. One-way or two-way Anova (using GraphPad Prism) followed by a post-hoc test, was used for statistical analysis of western blots and immunofluorescence as indicated in figure legends.

VPS34 (WIPI2 puncta) = assay: Cellular VPS34 activity: WIPI2 puncta immunofluorescence in U2OS cells; type: cell-based, human
Experimental: as §1
Prior to immunofluorescence, cells were grown on glass coverslips to ∼60% confluency. Cells were washed in PBS prior to fixation with 3.7% PFA/10 mM HEPES pH 7.0 at room temperature for 20 min. PFA was quenched using DMEM/10 mM HEPES pH 7.0/0.02% NaN3, followed by permeabilisation with 0.2% NP-40 in PBS for 5 min, followed by blocking with 1% BSA/PBS/0.02% NaN3. Primary antibody incubation was at room temperature for 60 min, followed by two 10-minute washes, then fluorescent secondary antibody incubation for 30 min and further washes (all in blocking buffer) before mounting onto glass slides. A wide field Nikon TS microscope was used for image capturing.
as §3

mTOR (ULK1 pS758) = assay: Upstream mTOR activity: ULK1 pS758 western blot in U2OS cells; type: cell-based, human; conditions: 100 nM (VPS34-IN1 500 nM), 60 min pre-treatment, ± EBSS 60 min
Experimental: as §1
as §2, with “Lysates” for “Prior to western blot analysis, cells were washed twice in ice-cold PBS and lysed in buffer containing 50 mM HEPES pH 7.4, 150 mM NaCl, 1 mM EDTA, 10% Glycerol, 0.5% NP-40, 1 mM DTT, supplemented with phosphatase inhibitors (1.15 mM sodium molybdate, 4 mM sodium tartrate, 0.01 M β-glycerophosphate, 1 mM sodium fluoride, 1 mM sodium orthovanadate) and protease inhibitor tablets (Roche) according to manufacturer's instructions. Lysates”
as §3

AMPK (ULK1 pS556) = assay: Upstream AMPK activity: ULK1 pS556 western blot in U2OS cells; type: cell-based, human; conditions: 100 nM (VPS34-IN1 500 nM), 60 min pre-treatment, ± EBSS 60 min
Experimental: as §1
as §2, with “Lysates” for “Prior to western blot analysis, cells were washed twice in ice-cold PBS and lysed in buffer containing 50 mM HEPES pH 7.4, 150 mM NaCl, 1 mM EDTA, 10% Glycerol, 0.5% NP-40, 1 mM DTT, supplemented with phosphatase inhibitors (1.15 mM sodium molybdate, 4 mM sodium tartrate, 0.01 M β-glycerophosphate, 1 mM sodium fluoride, 1 mM sodium orthovanadate) and protease inhibitor tablets (Roche) according to manufacturer's instructions. Lysates”
as §3

PI3Kδ = tested on: PI3Kδ; parameters: method as in ChEMBL database; conditions: statement in discussion on published selectivity; ref ChEMBL database; cited from earlier work
AMPK α1β2ɣ1 = AMPK α1β2ɣ1 (Homo sapiens, UniProt O43741+P54619+Q13131); assay: AMPK ADP Hunter Plus kinase activity assay
VPS34 = VPS34 (Homo sapiens, UniProt Q8NEB9); assay: VPS34 ADP Hunter Plus kinase activity assay
Chain of VPS34 (Q8NEB9 whole entry): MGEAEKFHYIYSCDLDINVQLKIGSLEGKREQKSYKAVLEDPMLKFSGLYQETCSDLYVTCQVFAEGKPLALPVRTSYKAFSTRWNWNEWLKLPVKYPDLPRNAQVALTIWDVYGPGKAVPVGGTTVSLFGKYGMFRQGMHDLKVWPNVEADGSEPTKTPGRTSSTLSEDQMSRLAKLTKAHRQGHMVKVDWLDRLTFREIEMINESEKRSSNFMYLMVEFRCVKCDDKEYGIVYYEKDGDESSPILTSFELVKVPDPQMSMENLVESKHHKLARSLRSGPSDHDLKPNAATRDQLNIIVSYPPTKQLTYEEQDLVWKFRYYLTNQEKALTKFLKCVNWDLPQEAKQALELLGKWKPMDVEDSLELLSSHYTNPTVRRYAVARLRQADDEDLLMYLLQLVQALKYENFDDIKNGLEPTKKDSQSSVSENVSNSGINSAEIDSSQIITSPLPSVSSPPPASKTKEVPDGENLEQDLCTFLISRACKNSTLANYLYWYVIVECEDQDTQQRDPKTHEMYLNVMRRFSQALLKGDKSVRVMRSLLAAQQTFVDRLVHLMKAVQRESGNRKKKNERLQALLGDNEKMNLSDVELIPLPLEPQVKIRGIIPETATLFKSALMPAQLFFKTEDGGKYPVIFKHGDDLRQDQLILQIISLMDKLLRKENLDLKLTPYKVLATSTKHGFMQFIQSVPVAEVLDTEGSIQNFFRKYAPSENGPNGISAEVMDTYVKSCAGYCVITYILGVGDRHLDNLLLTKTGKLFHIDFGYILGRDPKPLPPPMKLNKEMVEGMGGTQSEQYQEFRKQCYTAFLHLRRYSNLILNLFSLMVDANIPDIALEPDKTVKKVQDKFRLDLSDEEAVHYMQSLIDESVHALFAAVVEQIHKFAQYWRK

Chain of AMPK α1β2ɣ1 (Q13131 whole entry): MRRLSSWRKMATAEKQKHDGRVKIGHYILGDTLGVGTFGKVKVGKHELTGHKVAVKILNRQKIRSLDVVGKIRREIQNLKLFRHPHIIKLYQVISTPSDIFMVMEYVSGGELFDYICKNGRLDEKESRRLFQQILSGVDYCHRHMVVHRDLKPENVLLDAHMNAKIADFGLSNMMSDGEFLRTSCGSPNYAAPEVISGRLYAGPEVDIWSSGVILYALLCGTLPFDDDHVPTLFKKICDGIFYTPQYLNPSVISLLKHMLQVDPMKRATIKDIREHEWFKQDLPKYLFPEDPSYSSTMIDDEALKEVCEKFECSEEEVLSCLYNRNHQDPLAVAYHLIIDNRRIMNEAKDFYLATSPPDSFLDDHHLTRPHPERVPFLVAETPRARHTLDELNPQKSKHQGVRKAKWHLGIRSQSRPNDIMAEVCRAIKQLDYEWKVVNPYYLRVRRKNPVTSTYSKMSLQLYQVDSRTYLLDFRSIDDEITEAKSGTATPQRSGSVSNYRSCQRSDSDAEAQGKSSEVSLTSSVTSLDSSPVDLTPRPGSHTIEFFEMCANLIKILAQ
Chain of AMPK α1β2ɣ1 (O43741 whole entry partner): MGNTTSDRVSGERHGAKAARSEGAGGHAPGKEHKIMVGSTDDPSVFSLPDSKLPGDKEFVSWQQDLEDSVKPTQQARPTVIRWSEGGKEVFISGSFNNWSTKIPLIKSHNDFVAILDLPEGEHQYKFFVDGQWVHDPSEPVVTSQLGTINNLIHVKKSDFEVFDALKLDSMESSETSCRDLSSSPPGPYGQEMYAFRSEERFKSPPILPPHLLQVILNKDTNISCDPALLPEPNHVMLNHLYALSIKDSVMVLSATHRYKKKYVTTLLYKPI
Chain of AMPK α1β2ɣ1 (P54619 whole entry partner): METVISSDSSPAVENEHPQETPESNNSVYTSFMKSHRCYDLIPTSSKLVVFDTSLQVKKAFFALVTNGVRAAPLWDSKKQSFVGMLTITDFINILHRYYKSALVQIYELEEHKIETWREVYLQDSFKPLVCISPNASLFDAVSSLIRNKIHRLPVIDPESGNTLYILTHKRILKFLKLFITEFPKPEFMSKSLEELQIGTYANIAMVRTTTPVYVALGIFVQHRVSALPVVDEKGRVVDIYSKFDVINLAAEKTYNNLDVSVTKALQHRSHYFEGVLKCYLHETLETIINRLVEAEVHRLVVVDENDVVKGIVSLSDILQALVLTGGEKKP

In the case of `O=c1cc(N2CCOCC2)nc2n(Cc3cccc(Cl)c3Cl)c(C3CC3)nn12` [GSK2358994A], the IC50 (ULK1) is reported as greater than 100000 nM, the “Effect on LC3 flux under EBSS starvation” value (LC3 flux in U2OS cells; 100 nM, 60 min pre-treatment then 60 min EBSS) is reported as “significantly reduced LC3 flux” and the “Concentration blocking EBSS-induced autophagy (LC3) flux” value (LC3 flux in U2OS cells; EBSS + 50 nM BafA1, as low as, greater effect at 100 nM) is reported as no more than 10 nM. For the same compound, the “Effect on EBSS-induced WIPI2 puncta” value (VPS34 (WIPI2 puncta); 100 nM, 60 min pre-treatment then 60 min EBSS, vs EBSS only) was “significantly reduced”, the “Concentration working in cells (WIPI2 puncta reduction)” value (VPS34 (WIPI2 puncta); EBSS, as low as) was no more than 100 nM and the “Effect on mTORC1 activity (pS758 ULK1)” value (mTOR (ULK1 pS758)) was “unaffected”. The “Effect on AMPK activity (pS556 ULK1)” value (AMPK (ULK1 pS556)) was “unaffected”, the “Potency against PI3Kδ” value (PI3Kδ) was “potent against PI3Kδ” and the IC50 (AMPK α1β2ɣ1) was greater than 100000 nM. For the same compound, the IC50 (VPS34; IC50 against VPS34, resynthesized samples, mean potency in parenthesis, n = 5) was 8.6 nM and 9 nM, the IC50 (VPS34; pIC50 against VPS34, original PKIS samples, concentration-dependent retest of screen hits) was less than 1000 nM and the IC50 (VPS34; pIC50 against VPS34, resynthesized samples, 50 µM ATP (KM app), mean ± SD, n = 5) was 8.51 nM. The “Mechanism of inhibition of VPS34 with respect to ATP” value (VPS34; varying ATP below 200 µM, Michaelis–Menten and Lineweaver–Burk plots) was “primarily ATP competitive inhibition” and the “Mechanism of inhibition of VPS34 with respect to PI:PS” value (VPS34; varying PI:PS below 12 µM) was “clear non-competitive inhibition”.
